Legend:
[1] = target: α-amylase; assay: α-Amylase inhibition (DNS method); format: biochemical; details: 1% soluble starch as substrate
Procedure: α-Amylase inhibitory activity was measured using the dinitrosalicylic acid (DNS) method developed by Bernfeld (Methods in Enzymology, 1955, Vol. 1, pp 149-158), improved by Jamieson et al (Journal of Dental Research 1969; 48(3): 483) and adopted for testing inhibitory potential of test substances by M. C. M da Silva et al (2004, Pesq. Agropec. bras., Brasilia, 2004; 39(3); pp 201-208) using 1% soluble starch as substrate.
The test substances (α-mangostin, γ-mangostin and AR 933) were pre-incubated with α-amylase 100 μL (10-25 U/mL) at room temperature for 20 minutes prior to the addition of 100 μL of the substrate solution followed by incubation at 37° C. for 10 minutes. The reactions were stopped by the addition of 200 μL of DNS reagent, followed by color development by placing the tubes in boiling water for 5 minutes. After addition of 3.6 mL distilled water, the absorbance was read at 470 nm. Known α-amylase inhibitor was used as positive control and vehicle was used as negative control. Assays were carried out at least in duplicate. Percentage inhibition will be calculated by comparing mean test OD with mean control OD. {% inhibition=[(COD−TOD)/COD]×100}. The IC50 values were calculated by linear regression analysis of the dose response curve.

[2] = tested on: 3T3-L1 mouse pre-adipocyte cells; assay: Inhibition of lipid accumulation in differentiated adipocytes (Oil Red O); format: cell-based; details: 10 μg/ml; 3T3-L1 (Table III)
Procedure: The inhibition of fat accumulation in the treated cells was compared with the mock treated differentiated adipocytes and percentage inhibition was measured.
One hundred thousand 3T3-L1 […] pre-adipocyte cells in Dulbecco's Modified Eagles Medium (DMEM) containing 10% Fetal Bovine Serum (FBS) were taken into each well of a 24-well plate and incubated for 48 h at 37° C. and 5% CO2. The differentiation of pre-adipocyte cells was initiated in a differentiation medium containing 10 μg/ml insulin, 1.0 μM dexamethasone, and 0.5 mM isobutylmethylxanthine (IBMX) for 48 h. After this the medium was replaced by DMEM containing 10 μg/ml insulin and incubated for 3 days. Then the differentiating cells were treated 10 μg/ml of Sphaeranthus indicus ethyl acetate extract (LI/DD-II/054A/01) and 0.5 μg/ml of 7-hydroxyfrullanolide (LI054A01) and maintained in the medium for another 3-5 days. The cells incubated with 0.1% DMSO were considered as the vehicle control. After the incubation period, cells were washed with phosphate buffered saline (PBS) and fixed with 10% buffered formalin for 1 h at room temperature. One small aliquot of cell suspension was separated for cell counting in hemocytometer chamber. Fixed cells were stained with Oil Red O solution to measure the cellular neutral lipid accumulation. Briefly, cells were washed with PBS, fixed with 10% buffered formalin and stained with Oil Red O solution (0.5 g in 100 ml isopropanol) for 10 min. After removing the staining solution, the dye retained in the cells will be eluted into isopropanol and OD measured at 550 nm. The inhibition of fat accumulation in the treated cells was compared with the mock treated differentiated adipocytes. The treated and control cells were also analyzed and compared for inhibition of lipid accumulation visually under microscope and recorded digitally in suitable image capture system. The anti-adipogenic activities shown by Sphaeranthus Indicus ethyl acetate extract (LI/DD-II/054A/01) and LIO054A01 are summarized in the following table.

[3] = target: α-glucosidase; assay: α-Glucosidase inhibition (p-nitrophenyl α-D-glucopyranose); format: biochemical; details: pH 7, room temperature
Procedure: α-Glucosidase inhibitory activity was measured using the in vitro method developed by D. Prasanth et al., (Fitoterapia 2001, 72, 686-688). In a micro plate well was taken 50 μL of α-glucosidase enzyme (0.4 U/mL), and treated with 90 μL of 100 mM phosphate buffer (pH 7) and 10 μL test substances (α-mangostin, γ-mangostin and AR 933) or vehicle control. The contents were mixed well and the reaction mixtures were incubated at room temperature for 5 min, and then added 50 μL of p-nitrophenyl α-D-glucopyranose (20 mM) as substrate. The contents were mixed well and again incubated at room temperature for 15 min. The reaction was stopped by the addition of 30 μL of sodium carbonate solution (135 mM). The absorbance was measured at 405 nm using micro plate reader. Control and test blank ODs were obtained by replacing enzyme with buffer. Percentage inhibitions were calculated by comparing mean test OD with mean control OD. {% inhibition=[(COD−TOD)/COD]×100}. The IC50 values were calculated by linear regression analysis of the dose response curve.

[4] = tested on: 3T3-L1 pre-adipocyte cells; assay: Pro-lipolytic activity in differentiated adipocytes (free glycerol release); format: cell-based, mouse; details: 3T3-L1 (Table IV)
Procedure: Similarly, the pro-lipolytic activity of the ethyl actate extract (LI/DD-II/054A/01) of Sphaeranthus indicus was assessed in differentiated/mature adipocytes using 3T3-L1 pre-adipocyte cells. The lipolytic activity was assessed in mature adipocytes by measuring free glycerol secreted into the culture medium as per the procedure of Adipolysis Assay Kit (Chemicon International, USA).
The lipolytic activity was assessed in mature adipocytes as per the procedure of Chemicon International, USA, by measuring free glycerol secreted into the culture medium. One hundred thousand 3T3-L1 […] pre-adipocyte cells in Dulbecco's Modified Eagles Medium (DMEM) containing 10% Fetal Bovine Serum (FBS) were taken into each well of a 24-well plate and incubated for 48 h at 37° C. and 5% CO2. The differentiation of pre-adipocyte cells was initiated in a differentiation medium containing 10 μg/ml insulin, 1.0 μM dexamethasone, and 0.5 mM isobutylmethylxanthine (IBMX). The cells were differentiated for 5 days and then the culture medium was removed. […] The samples and the controls were incubated for 15 min, and the absorbance was read at 540 nm. […]

Row | Compound | IC50 (μg/ml) for α-amylase [1] [µg/mL] | % inhibition of Lipid accumulation 10 μg/ml [2] [%] | IC50 (μg/ml) for α-glucosidase [3] [µg/mL] | % acceleration of lipolysis 25 μg/ml [4] [%]
1 | COc1c(O)cc2oc3cc(O)c(CC=C(C)C)c(O)c3c(=O)c2c1CC=C(C)C [α-mangostin] | 3.99 | 16.06 | 0.30 | 156.56
2 | CC(C)=CCc1c(O)cc2oc3cc(O)c(O)c(CC=C(C)C)c3c(=O)c2c1O [γ-mangostin] | 3.88 | 61.57 | 0.16 | 4.52
